Consider 41 compounds from patent US4424358A, “β-3-Amino nor-tropane compounds” (Delalande S.A., priority 1979, dated 1984).

The nature of data set [1]: acute toxicity by intraperitoneal administration. The following applies: mouse, in vivo, ip; mice, i.p., estimated lethal dose (method of Miller); read-out: Acute toxicity LD 50. The text has this:
Acute toxicity was studied on mice by intraperitoneal administration, and the estimated lethal doses in accordance with the method described by MILLER and THINTER Proc. Soc. Exper.

Data set [2] has as its system apomorphine straightening. Put plainly: antagonism to apomorphine straightening (neuroleptic activity). It counts as in vivo, mice. As to conditions: Mus musculus, ip, read-out: Apomorphine straightening ED 50.

Where two headings read alike, the source gives them in different places.

Take `CCOc1nc(N)ncc1C(=O)N[C@@H]1C[C@H]2CC[C@@H](C1)N2Cc1ccccc1` [Compound 3]: the LD50 in data set [1] was 300 mg/kg. In data set [2], the ED50 stood at 0.04 mg/kg.

Take `COc1nc(N)ncc1C(=O)N[C@@H]1C[C@H]2CC[C@@H](C1)N2Cc1ccc(Cl)cc1` [Compound 8, β-3-[5-(2-amino 4-methoxypyrimidinyl)carbonyl]amino N-parachlorobenzyl nor-tropane]: in data set [1], the LD50 was 220 mg/kg. Besides, the ED50 in data set [2] amounted to 0.035 mg/kg.

With `COc1ccc(CN2[C@@H]3CC[C@H]2C[C@H](NC(=O)c2cnc(N)nc2OC)C3)cc1` [Compound 9], the LD50 in data set [1] is 240 mg/kg. Further, the ED50 in data set [2] is 0.01 mg/kg.

For `COc1nc(N)ncc1C(=O)N[C@@H]1C[C@H]2CC[C@@H](C1)N2Cc1ccc(C)cc1` [Compound 10], the LD50 in data set [1] is 325 mg/kg. Moreover, in data set [2], the ED50 was found to be 0.035 mg/kg.

Consider `COc1cc(N)c(Br)cc1C(=O)N[C@@H]1C[C@H]2CC[C@@H](C1)N2Cc1ccccc1` [Compound 16], for which the LD50 in data set [1] was 240 mg/kg. Besides, in data set [2], the ED50 amounted to 0.01 mg/kg.

With `COc1cc(N)c(Br)cc1C(=O)N[C@@H]1C[C@H]2CC[C@@H](C1)N2Cc1ccc(F)cc1` [Compound 19, β-3-[(4-amino 5-bromo 2-methoxy)benzoyl]amino N-parafluorobenzyl nor-tropane, chlorhydrate], the LD50 in data set [1] is 90 mg/kg. Also, the ED50 in data set [2] turned out to be 0.01 mg/kg.

As for `COc1cc(N)c(Br)cc1C(=O)N[C@@H]1C[C@H]2CC[C@@H](C1)N2Cc1ccc(Br)cc1` [Compound 20], the LD50 in data set [1] was above 400 mg/kg. Besides, the ED50 in data set [2] is 0.034 mg/kg.

As for `COc1cc(N)c(Br)cc1C(=O)N[C@@H]1C[C@H]2CC[C@@H](C1)N2Cc1cccc(C(F)(F)F)c1` [Compound 21], the LD50 in data set [1] is 85 mg/kg. Also, the ED50 in data set [2] was 0.07 mg/kg.

For the compound `COc1cc(N)c(Br)cc1C(=O)N[C@@H]1C[C@H]2CC[C@@H](C1)N2Cc1ccc(Cl)cc1` [Compound 22], the LD50 in data set [1] is 140 mg/kg. In data set [2], the ED50 came to 0.021 mg/kg.

Consider `COc1cc(N)c(Br)cc1C(=O)N[C@@H]1C[C@H]2CC[C@@H](C1)N2Cc1ccc(C)cc1` [Compound 23], for which, in data set [1], the LD50 is above 400 mg/kg. The ED50 in data set [2] is 0.07 mg/kg.

For the compound `COc1cc(N)c(Br)cc1C(=O)N[C@@H]1C[C@H]2CC[C@@H](C1)N2Cc1cccc(C)c1` [Compound 24], the LD50 in data set [1] was 160 mg/kg. The ED50 in data set [2] was 0.05 mg/kg.

In the case of `COc1cc(N)c(Br)cc1C(=O)N[C@@H]1C[C@H]2CC[C@@H](C1)N2Cc1cccc(Cl)c1` [Compound 25], in data set [1], the LD50 was 100 mg/kg. Further, the ED50 in data set [2] worked out at 0.03 mg/kg.

For the compound `COc1cc(N)c(Br)cc1C(=O)N[C@@H]1C[C@H]2CC[C@@H](C1)N2Cc1cccc(F)c1` [Compound 26], the LD50 in data set [1] was 140 mg/kg. Moreover, the ED50 in data set [2] was found to be 0.011 mg/kg.

As to `COc1cc(N)c(Br)cc1C(=O)N[C@@H]1C[C@H]2CC[C@@H](C1)N2Cc1cccc(Br)c1` [Compound 27], the LD50 in data set [1] is above 400 mg/kg. Moreover, the ED50 in data set [2] was found to be 0.034 mg/kg.

For `COc1cc(N)c(Br)cc1C(=O)N[C@@H]1C[C@H]2CC[C@@H](C1)N2Cc1ccc(Cl)c(Cl)c1` [Compound 28], the LD50 in data set [1] is above 400 mg/kg. Besides, in data set [2], the ED50 is 0.12 mg/kg.

As for `COc1cc(N)c(Br)cc1C(=O)N[C@@H]1C[C@H]2CC[C@@H](C1)N2Cc1cccs1` [Compound 29], the LD50 in data set [1] is 180 mg/kg. For the same compound, in data set [2], the ED50 was 0.012 mg/kg.

With `CCc1ccc(CN2[C@@H]3CC[C@H]2C[C@H](NC(=O)c2cc(Br)c(N)cc2OC)C3)cc1` [Compound 30], the LD50 in data set [1] is 230 mg/kg. In data set [2], the ED50 was 0.3 mg/kg.

Regarding `COc1cc(N)c(Br)cc1C(=O)N[C@@H]1C[C@H]2CC[C@@H](C1)N2Cc1ccsc1` [Compound 32], the LD50 in data set [1] is 140 mg/kg. In data set [2], the ED50 was 0.05 mg/kg.

As for `COc1cc(N)c(Br)cc1C(=O)N[C@@H]1C[C@H]2CC[C@@H](C1)N2Cc1ccc(C(F)(F)F)cc1` [Compound 33], the LD50 in data set [1] was above 400 mg/kg. Besides, the ED50 in data set [2] worked out at 0.19 mg/kg.

`COc1cc(N)c(Br)cc1C(=O)N[C@@H]1C[C@H]2CC[C@@H](C1)N2CC1CCCCC1` [Compound 35]: the LD50 in data set [1] was 80 mg/kg. For the same compound, the ED50 in data set [2] is 0.07 mg/kg.

As for `COc1nc(N)ncc1C(=O)N[C@@H]1C[C@H]2CC[C@@H](C1)N2Cc1ccc(Br)cc1` [Compound 37], the LD50 in data set [1] was 170 mg/kg. Besides, in data set [2], the ED50 came to 0.16 mg/kg.

In the case of `COc1cc(NC(C)=O)c(Br)cc1C(=O)N[C@@H]1C[C@H]2CC[C@@H](C1)N2Cc1ccccc1` [Compound 40], in data set [1], the LD50 is 130 mg/kg. In data set [2], the ED50 is 0.05 mg/kg.

With `COc1cc(NC(=O)C(F)(F)F)c(Br)cc1C(=O)N[C@@H]1C[C@H]2CC[C@@H](C1)N2Cc1ccccc1` [Compound 41], the LD50 in data set [1] was 225 mg/kg. Besides, in data set [2], the ED50 is 0.03 mg/kg.

Take `COc1cc(NC(C)=O)c(Cl)cc1C(=O)N[C@@H]1C[C@H]2CC[C@@H](C1)N2Cc1ccccc1` [Compound 42]: the LD50 in data set [1] is 61 mg/kg. Moreover, in data set [2], the ED50 came to 0.05 mg/kg.

For the compound `COc1cc(NC(=O)C(F)(F)F)c(Cl)cc1C(=O)N[C@@H]1C[C@H]2CC[C@@H](C1)N2Cc1ccccc1` [Compound 43], the LD50 in data set [1] is 120 mg/kg. In addition, the ED50 in data set [2] came out at 0.03 mg/kg.

For the compound `COc1ccc([N+](=O)[O-])cc1C(=O)N[C@@H]1C[C@H]2CC[C@@H](C1)N2Cc1ccccc1` [Compound 48], the LD50 in data set [1] was 310 mg/kg. In data set [2], the ED50 was 0.21 mg/kg.

Turning to `COc1ccc(F)cc1C(=O)N[C@@H]1C[C@H]2CC[C@@H](C1)N2Cc1ccccc1` [Compound 49], in data set [1], the LD50 is 120 mg/kg. In data set [2], the ED50 came to 0.08 mg/kg.

Take `COc1ccc(O)cc1C(=O)N[C@@H]1C[C@H]2CC[C@@H](C1)N2Cc1ccccc1` [Compound 51]: in data set [1], the LD50 is 140 mg/kg. Moreover, the ED50 in data set [2] is 0.03 mg/kg.

In the case of `COc1cc(OC)c(C(=O)N[C@@H]2C[C@H]3CC[C@@H](C2)N3Cc2ccccc2)cc1OC` [Compound 60], in data set [1], the LD50 was 75 mg/kg. Besides, in data set [2], the ED50 was found to be 0.027 mg/kg.

Take `COc1ccc(C(=O)N[C@@H]2C[C@H]3CC[C@@H](C2)N3Cc2ccccc2)c(OC)c1OC` [Compound 61]: the LD50 in data set [1] was 80 mg/kg. Moreover, in data set [2], the ED50 was 0.02 mg/kg.

For the compound `COc1ccccc1C(=O)N[C@@H]1C[C@H]2CC[C@@H](C1)N2Cc1ccccc1` [Compound 62], the LD50 in data set [1] was 60 mg/kg. The ED50 in data set [2] is 0.04 mg/kg.

Consider `COc1cccc(C(=O)N[C@@H]2C[C@H]3CC[C@@H](C2)N3Cc2ccccc2)c1OC` [Compound 64], for which, in data set [1], the LD50 was 83 mg/kg. For the same compound, the ED50 in data set [2] worked out at 0.008 mg/kg.

With `COc1cc(N)ccc1C(=O)N[C@@H]1C[C@H]2CC[C@@H](C1)N2Cc1ccccc1` [Compound 67], in data set [1], the LD50 was 100 mg/kg. Besides, in data set [2], the ED50 amounted to 0.038 mg/kg.

For the compound `COc1ccc(C(=O)N[C@@H]2C[C@H]3CC[C@@H](C2)N3Cc2ccccc2)c(OC)c1` [Compound 68], the LD50 in data set [1] is 47 mg/kg. For the same compound, the ED50 in data set [2] came to 0.02 mg/kg.

On to `COc1cc(N)c(Cl)cc1C(=O)N[C@@H]1C[C@H]2CC[C@@H](C1)N2Cc1ccco1` [Compound 71], for which, in data set [1], the LD50 is 120 mg/kg. For the same compound, in data set [2], the ED50 worked out at 0.11 mg/kg.

On to `COc1cc(N)c(Cl)cc1C(=O)N[C@@H]1C[C@H]2CC[C@@H](C1)N2Cc1ccsc1` [Compound 72], for which the LD50 in data set [1] is 110 mg/kg. For the same compound, the ED50 in data set [2] stood at 0.04 mg/kg.

In the case of `COc1cc(N)c(Cl)cc1C(=O)N[C@@H]1C[C@H]2CC[C@@H](C1)N2Cc1cccs1` [Compound 73], the LD50 in data set [1] was 170 mg/kg. Moreover, the ED50 in data set [2] was 0.02 mg/kg.

With `COc1c(C(=O)N[C@@H]2C[C@H]3CC[C@@H](C2)N3Cc2ccccc2)cc(Br)c(N)c1Br` [Compound 74], the LD50 in data set [1] was 250 mg/kg. Moreover, the ED50 in data set [2] is 0.035 mg/kg.

For the compound `CCOc1cc(N)c(Br)cc1C(=O)N[C@@H]1C[C@H]2CC[C@@H](C1)N2Cc1ccccc1` [Compound 75], the LD50 in data set [1] is above 400 mg/kg. Also, the ED50 in data set [2] came to 0.021 mg/kg.

Consider `COc1cc(OC)cc(C(=O)N[C@@H]2C[C@H]3CC[C@@H](C2)N3Cc2ccccc2)c1` [Compound 83], for which, in data set [1], the LD50 was 140 mg/kg. For the same compound, in data set [2], the ED50 was determined as 0.031 mg/kg.

As for `CCN1CCCC1CNC(=O)c1cc(S(N)(=O)=O)ccc1OC` (stereo not drawn) [SULPIRIDE, reference compound], the ED50 in data set [2] (mice, i.p.) amounted to 37 mg/kg.
